# Measured values taken from patent US20130197073A1, “HYPOCHOLESTEROLEMIC, ANTI-INFLAMMATORY AND ANTIEPILEPTIC NEUROPROTECTIVE COMPOUND” (NEURON BIOPHARMA, S.A., priority 2010, published 2013).
# Assays:
# FVB/NHan mice [1] = assay: Death caused by acute administration of kainate in mice, survival; type: in vivo; details: 50 mg/kg i.p. at 24 and 0.5 hours before KA 25 mg/kg and daily up to 7 days; p<0.05
# Protocol: (§1) All the animals included during the experimental process were 12-week old males from the FVB/NHan strain. The experiments were carried out strictly complying with the standard entitled Guidance on the Operation of Animals (Scientific Procedures, Act. 1986). The animals were subjected to their respective quarantine period and were treated with maximum precaution to minimize possible contaminations during inoculations and handling.
# The animals were intraperitoneally inoculated with 25 mg/kg of kainate (KA) dissolved in PBS. Fourteen animals were pretreated at 24 and 0.5 hours before inoculation with KA and subsequently on a daily basis up to 7 days post-inoculation by means of intraperitoneal injection with 0.25% methyl cellulose in PBS as a vehicle (vehicle+KA administration regimen) and 14 were pretreated at 24 and 0.5 hours before inoculation with KA and subsequently on a daily basis up to 7 days post-inoculation by means of intraperitoneal injection with compound NST0060 at a dose of 50 mg/kg (NST0060+KA administration regimen). After inoculation, the animals were individually housed in trays to monitor them.
# [2] = test system: human neuroblastoma SK-N-MC cells; assay: Protection against neuronal death induced by 3-nitropropionic acid (inhibition of succinate dehydrogenase), WST-1; type: cell-based; details: NST0060 at 40 μM; 30 μM 3-NP, 22 hours; significant in the range of 4 to 40 μM
# Protocol: The assay was performed on human neuroblastoma SK-N-MC cells in culture, maintained as described in section 2.1.
# The inhibition caused by compound NST0060 with respect to cell death caused by treatment with 3-nitropropionic (3-NP) acid was analyzed. 3-NP is an irreversible inhibitor of the succinate dehydrogenase enzyme which in animal models causes oxidative stress and apoptotic cell death in the striatum and mimics neurochemical and anatomical changes associated with Huntington's disease (HD). These cells, not exceeding 15 passages, were seeded on 96-well plates treated for adherent cells with a cell concentration of 5×10^4 cells/well; 3 wells of the plate were seeded for each assay condition.
# After 24 hours of cell incubation (at 37° C. and 5% CO2), the cell treatments were performed with 100 μl of total volume for the following conditions: • Control: culture medium (medium) • 3-Nitropropionic (3-NP): medium plus 30 μM 3-NP, causing death of 50% of the cells. • 3-NP plus NST0060: medium plus 3-NP (30 μM) plus NST0060 at 1, 4, 10, 40 or 100 μM.
# The cells were incubated (at 37° C. and 5% CO2) with these treatments for 22 hours, after which time WST-1 reagent (Roche) was added. The WST-1 test is based on the measurement of metabolic activity (method described in section 2.1).
# [3] = PAMPA, 18 h, 100 μM, pH 7.4
# Excerpt: (§2) To that end, the BBB was mimicked in an in vitro system that allowed evaluating the compound without using cells, and where the so-called PAMPA (Parallel Artificial Membrane Permeation Assay) was used, using a sandwich system considering the crossing of compounds by means of passive diffusion.
# (§3) A mixture of marketed lipids derived from pig brain with a phospholipid composition very similar to that which forms the barrier and known as PBL (Porcine Polar Brain Lipid) was used to mimic the blood-brain barrier. This compound was stored at −20° C. dissolved in dodecane at 100 μg/ml in glass vials.
# (§4) To that end, a 1/100 dilution of the compounds was performed, being the DMSO content in all cases 1%.
# (§5) Five microliters of PBL at 20 μg/ml prepared from the frozen stock at 100 μg/mL were added in a 96-well filter plate, with a PVDF membrane and a pore size of 45 μm (MAIPN4550, Millipore). After 2 minutes, 300 μl of the phosphate buffer used to dilute the compounds were added. […] After that time, 100 μl from the wells of the donor plates and acceptor plates were transferred to a special 96-well plate for UV reading. […] The percentage of barrier crossing as well as the effective permeability (Pe) were calculated from the spectrophotometric data. […]
# (§6) [Drug]acceptor=Absorbance of the acceptor well
# (§7) [Drug]equilibrium=Absorbance of the mean of the basal wells/2 […]
# in vitro = details: PAMPA, pH 7.4
# Excerpt: as §2, §3, §4, §5, §6, §7
# TNFα = assay: LPS model of systemic shock in mice, plasma TNFα at 2 and 4 hours; type: in vivo; details: two i.p. doses of 50 mg/kg; 2 and 4 hours post-LPS
# Protocol: as §1, with “To that end an additional assay was carried out in which all” for “All”, “included” for “included during the experimental process”, “male C57BL6 mice.” for “males from the FVB/NHan strain.”, “treatments” for “inoculations”
# The mice were split up into three experimental groups: control group (n=8); control+LPS group (n=16); NST0060+LPS group (n=16). The mice were i.p. administered two doses of 50 mg/kg of NST0060 (in its lactone form) spaced out 12 hours from one another. 0.5% methyl cellulose in physiological saline, which was administered to the mice in the control groups with the same administration regimen, was used as a vehicle. Peripheral systemic inflammation was induced one hour after the last treatment by means of a single i.p. injection of LPS at 8 mg/kg. Half the mice in which systemic shock was induced (8 animals from the control+LPS group and 8 animals from the NST0060+LPS group) were sacrificed 2 hours after the inoculation of the LPS. Blood was taken and plasma was obtained, and both were frozen. […] The concentration of the inflammatory cytokines TNFα and IL-1β was evaluated in the plasma obtained by means of ELISA.
# FVB/NHan mice [4] = assay: Kainate (KA) model of epilepsy in mice, convulsions, status epilepticus, latency, Racine scale; type: in vivo
# Protocol: as §1
# The animals were intraperitoneally inoculated with 25 mg/kg of kainate (KA) dissolved in PBS. Fourteen animals were pretreated at 24 and 0.5 hours before inoculation with KA by means of intraperitoneal injection with 0.25% methyl cellulose in PBS (vehicle+KA administration regimen), and 14 were pretreated at 24 and 0.5 hours before inoculation with KA by means of intraperitoneal injection with compound NST0060 at a dose of 50 mg/kg (NST0060+KA administration regimen). After inoculation, the animals were individually housed in trays to monitor them. The maximum level of epilepsy of the animals was recorded during the observation according to the Racine scale every ten minutes and for at least 120 minutes post-inoculation (m.p.i.).
# [5] = test system: zebrafish (Danio rerio, AB strain) embryos; assay: Zebrafish embryo acute toxicity, mortality (OECD C.15); type: in vivo; details: for Mortality (dead larvae with respect to the total): 3 days
# Protocol: 30 control animals treated with dilution water and with daily replacement until the end of the assay.
# 30 animals treated with compound NST0060 (3 embryos for every ten replicates) diluted in dilution water at doses between 1 and 100 mg/Kg and with daily replacement of the substance during the days that the assay lasted.
# After the time of exposure to the substances under study, the mortality record of the larvae was determined, results being shown in Table 2.
compound,measurement,setting,value
"CCCC(CCC)C(=O)O[C@H]1C[C@@H](C)C=C2C=C[C@H](C)[C@H](CC[C@@H]3C[C@@H](O)CC(=O)O3)[C@H]21 [NST0060, 2-propylpentanoic acid (1S,3R,7S,8S,8aR)-1,2,3,7,8,8a-hexahydro-3,7-dimethyl-8-[2-[(2R,4R)-tetrahydro-4-hydroxy-6-oxo-2H-pyran-2-yl]ethyl]-1-naphthalenyl ester]",mortality caused by KA,FVB/NHan mice [1],reduces mortality observed in a statistically significant manner
same,protection against cell death caused by 3-NP,[2],32%
same,% BBB crossing,[3],29.8 ± 2.4%
same,"Papp at 18 h, 100 μM",in vitro,8.8 ± 1.2 ×10⁻⁶ cm/s
same,plasma concentration of TNFα (inflammatory response),TNFα,decrease in the inflammatory response at both 2 and 4 hours post-LPS
same,"Status epilepticus, percentage of animals with tonic-clonic seizures lasting at least 30 minutes","FVB/NHan mice [4]; 50 mg/kg i.p. at 24 and 0.5 hours before KA 25 mg/kg i.p., vehicle+KA 79%",29%
same,"Convulsions, percentage of animals with tonic-clonic seizures","FVB/NHan mice [4]; 50 mg/kg i.p. at 24 and 0.5 hours before KA 25 mg/kg i.p., vehicle+KA 93%",36%
same,latency (time when the first convulsions occurred),"FVB/NHan mice [4]; 50 mg/kg i.p. at 24 and 0.5 hours before KA 25 mg/kg, mean±SEM, vehicle+KA 45.7±7.5",100.1 ± 7.3 min
same,mean level of epilepsy on the Racine scale,"FVB/NHan mice [4]; 50 mg/kg i.p., two hours after KA, vehicle+KA above 4",≤ 3
same,Mortality (dead larvae with respect to the total),[5]; Dose 1 mg/kg,0/30
same,Mortality (dead larvae with respect to the total),[5]; Dose 3 mg/kg,0/30
same,Mortality (dead larvae with respect to the total),[5]; Dose 10 mg/kg,7/30
same,Mortality (dead larvae with respect to the total),[5]; Dose 30 mg/kg,30/30
same,Mortality (dead larvae with respect to the total),[5]; Dose 100 mg/kg,30/30
same,deaths out of 30 animals,"[5]; dose of 10 mg/Kg, 72 h",7
